For this assay, the target named is human TMEM16A (TMEM16Aabc variant) (Homo sapiens, UniProt Q5XXA6, DEL476-501, form not given). Put plainly: Automated whole-cell patch clamp (Qpatch) TMEM16A potentiator assay in FRT cells stably expressing human TMEM16A. The format is cell-based. As to conditions: for % Potentiation @ 3.33 μM Avg: 3.33 μM solution of test compound, percentage increase of baseline TMEM16A current; for EC50: calculated EC50, Qpatch TMEM16A current at +70 mV. The method, boiled down:
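FRT cells stably expressing human TMEM16Aabc were recorded by automated whole-cell patch clamp, with intracellular Ca2+ buffered for ~EC20 activation, holding −70 mV and step to +70 mV at 0.05 Hz. Compound was applied cumulatively, 5 min per concentration. Peak current increase as % of baseline was fitted to give EC50 and maximum efficacy.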

human TMEM16A (TMEM16Aabc variant), sequence (Q5XXA6 with tags, fused parts or gaps DEL476-501): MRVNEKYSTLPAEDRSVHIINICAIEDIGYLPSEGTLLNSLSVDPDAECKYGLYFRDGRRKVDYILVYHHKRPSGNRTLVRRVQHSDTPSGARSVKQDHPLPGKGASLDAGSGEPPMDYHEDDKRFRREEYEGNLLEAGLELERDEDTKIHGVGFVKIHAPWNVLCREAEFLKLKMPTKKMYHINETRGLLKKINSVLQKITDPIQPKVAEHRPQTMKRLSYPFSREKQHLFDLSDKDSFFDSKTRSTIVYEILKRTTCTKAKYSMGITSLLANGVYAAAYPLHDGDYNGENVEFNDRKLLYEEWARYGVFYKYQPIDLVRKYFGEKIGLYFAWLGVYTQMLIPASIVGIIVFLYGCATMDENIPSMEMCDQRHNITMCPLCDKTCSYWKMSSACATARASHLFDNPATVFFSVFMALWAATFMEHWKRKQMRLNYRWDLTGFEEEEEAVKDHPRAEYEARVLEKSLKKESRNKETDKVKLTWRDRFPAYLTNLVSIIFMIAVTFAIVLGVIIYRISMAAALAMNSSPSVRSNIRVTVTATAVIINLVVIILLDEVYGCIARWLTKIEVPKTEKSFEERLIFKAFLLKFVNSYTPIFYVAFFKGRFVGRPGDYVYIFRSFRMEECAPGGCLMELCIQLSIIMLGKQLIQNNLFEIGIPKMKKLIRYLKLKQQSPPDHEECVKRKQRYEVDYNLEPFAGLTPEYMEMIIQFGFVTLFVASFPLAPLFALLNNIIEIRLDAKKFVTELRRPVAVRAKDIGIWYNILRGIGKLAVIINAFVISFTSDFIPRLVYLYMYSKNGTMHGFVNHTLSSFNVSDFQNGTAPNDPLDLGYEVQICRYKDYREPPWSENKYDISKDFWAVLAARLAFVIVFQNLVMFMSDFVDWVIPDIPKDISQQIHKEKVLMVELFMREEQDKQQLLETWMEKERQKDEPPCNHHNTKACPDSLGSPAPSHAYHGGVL

Regarding `C#CC(C)(C)NC(=O)c1cc(NC(=O)Cc2ccccc2C(F)(F)F)ccn1` [Example 5.38, N-(1,1-Dimethylprop-2-ynyl)-4-[[2-[2-(trifluoromethyl)phenyl]acetyl]amino]pyridine-2-carboxamide], the “% Potentiation @ 3.33 μM Avg” value came to 231% and the EC50 was 150 nM.
As to `O=C(Cc1ccccc1Cl)Nc1ccnc(C(=O)NC2CC2(F)F)c1` (stereo not shown) [Example 30.6, 4-[[2-(2-Chlorophenyl)acetyl]amino]-N-(2,2-difluorocyclopropyl)pyridine-2-carboxamide], the “% Potentiation @ 3.33 μM Avg” value is on record as 80%.
As to `C#CC(C)(C)NC(=O)c1cc(NC(=O)Cc2c[nH]nc2C(F)(F)F)ccn1` [Example 5.36, N-(1,1-Dimethylprop-2-ynyl)-4-[[2-[3-(trifluoromethyl)-1H-pyrazol-4-yl]acetyl]amino] pyridine-2-carboxamide], the “% Potentiation @ 3.33 μM Avg” value was found to be 44% and the EC50 is 60 nM.
Turning to `O=C(Cc1cc(Cl)ccc1O)Nc1ccnc(C(=O)NC2(CO)COC2)c1` [Example 35.26, 4-[[2-(5-Chloro-2-hydroxy-phenyl)acetyl]amino]-N-[3-(hydroxymethyl)oxetan-3-yl]pyridine-2-carboxamide], the “% Potentiation @ 3.33 μM Avg” value came out at 157%.
In the case of `C#CC1(NC(=O)c2cc(NC(=O)Cc3cc(Cl)ccc3O)ccn2)CCOCC1` [Example 31.4, 4-[[2-(5-Chloro-2-hydroxy-phenyl)acetyl]amino]-N-(4-ethynyltetrahydropyran-4-yl)pyridine-2-carboxamide], the “% Potentiation @ 3.33 μM Avg” value worked out at 186% and the concentration giving a half-maximal response (EC50) is 20 nM.
Turning to `CC(C)(C)OC(=O)N1CCCC(NC(=O)c2cc(NC(=O)Cc3cc(Cl)ccc3O)ccn2)C1` (stereo not shown) [Example 8.1, tert-Butyl-3-[[4-[[2-(5-chloro-2-hydroxy-phenyl)acetyl]amino]pyridine-2-carbonyl]amino]piperidine-1-carboxylate], the “% Potentiation @ 3.33 μM Avg” value is given as 155% and the EC50 is 590 nM.
Turning to `CC(C)(C)NC(=O)c1cc(NC(=O)Cc2cccc(CC#N)c2)ccn1` [Example 68, N-tert-Butyl-4-[[2-[3-(cyanomethyl)phenyl]acetyl]amino]pyridine-2-carboxamide], the “% Potentiation @ 3.33 μM Avg” value amounted to 39%.
Same read-out and setting: the result for `C#CC(C)(C)NC(=O)c1cc(NC(=O)CC(C)(C)C)ccn1` [Example 22.1, 4-(3,3-Dimethylbutanoylamino)-N-(1,1-dimethylprop-2-ynyl)pyridine-2-carboxamide] reads 114%.
In the case of `C#CC(C)(C)NC(=O)c1cc(NC(=O)Cc2ccc(Cl)cc2O)ccn1` [Example 78, 4-[[2-(4-Chloro-2-hydroxy-phenyl)acetyl]amino]-N-(1,1-dimethylprop-2-ynyl)pyridine-2-carboxamide], the “% Potentiation @ 3.33 μM Avg” value was determined as 98% and the EC50 is 20 nM.
As to `CC(C)(C)NC(=O)c1cc(NC(=O)C2COc3ccccc32)ccn1` (stereo not shown) [Example 5.25, N-tert-Butyl-4-(2,3-dihydrobenzofuran-3-carbonylamino)pyridine-2-carboxamide], the “% Potentiation @ 3.33 μM Avg” value amounted to 67%.
Still for that read-out and setting: in the case of `CC(C)(C#N)NC(=O)c1cc(NC(=O)CC2CC3CCC2C3)ccn1` (stereo not shown) [Example 83.6, 4-(2-{Bicyclo[2.2.1]heptan-2-yl}acetamido)-N-(1-cyano-1-methylethyl)pyridine-2-carboxamide] it was 248%; in that of `CC(C)(C)NCc1cc(O)c(CC(=O)Nc2ccnc(C(=O)NC(C)(C)C)c2)cc1Cl` [Example 27.1, N-tert-Butyl-4-[[2-[4-[(tert-butylamino)methyl]-5-chloro-2-hydroxy-phenyl]acetyl]amino]pyridine-2-carboxamide], 52%.
`CC(C)(O)C(C)(C)NC(=O)c1cc(NC(=O)Cc2cc(Cl)ccc2O)ccn1` [Example 7.14, 4-[[2-(5-Chloro-2-hydroxy-phenyl)acetyl]amino]-N-(2-hydroxy-1,1,2-trimethyl-propyl)pyridine-2-carboxamide]: the “% Potentiation @ 3.33 μM Avg” value amounted to 225% and the EC50 was 150 nM.

By EC50 is commonly meant the concentration needed to bring the measured effect to its halfway point.

The values are drawn from patent US20200361871A1 (Enterprise Therapeutics Ltd., priority 2018, published 2020).
